{"source": "patent US20020045168A1", "about": "“Computer based modeling system” (priority 2000, published 2002)", "origin": "cited, not measured here", "details_in_all_cases": "experimental, native ligand", "key": {"Arg aptamer (1koc)": {"tested_on": "Arg aptamer (1koc)"}, "citruline aptamer (1kod)": {"tested_on": "citruline aptamer (1kod)"}, "FMN aptamer (1fmn)": {"tested_on": "FMN aptamer (1fmn)"}, "AMP aptamer (1am0)": {"tested_on": "AMP aptamer (1am0)"}, "[1]": {"tested_on": "tobramycin aptamer (2tob)"}}}
{"smiles": "N=C(N)NCCC[C@H](N)C(=O)O", "note": "[Arginine, arginine]", "values": [{"measurement": "Exptl ΔGbind", "setting": "Arg aptamer (1koc)", "value": "−28.5", "unit": "kJmol^−1"}]}
{"smiles": "NC(=O)NCCC[C@H](N)C(=O)O", "note": "[Citruline, citruline]", "values": [{"measurement": "Exptl ΔGbind", "setting": "citruline aptamer (1kod)", "value": "−28.5", "unit": "kJmol^−1"}]}
{"smiles": "Cc1cc2nc3c(=O)[nH]c(=O)nc-3n(C[C@H](O)[C@H](O)[C@H](O)COP(=O)(O)O)c2cc1C", "note": "[Fmn, flavin mononucleotide]", "values": [{"measurement": "Exptl ΔGbind", "setting": "FMN aptamer (1fmn)", "value": "−30.1", "unit": "kJmol^−1"}]}
{"smiles": "Nc1ncnc2c1ncn2[C@@H]1O[C@H](COP(=O)(O)O)[C@@H](O)[C@H]1O", "note": "[AMP, adenosine monophosphate]", "values": [{"measurement": "Exptl ΔGbind", "setting": "AMP aptamer (1am0)", "value": "−28.5", "unit": "kJmol^−1"}]}
{"smiles": "NC[C@H]1O[C@H](O[C@H]2[C@H](O)[C@@H](O[C@H]3O[C@H](CO)[C@@H](O)[C@H](N)[C@H]3O)[C@H](N)C[C@@H]2N)[C@H](N)C[C@@H]1O", "note": "[Tobramycin, tobramycin]", "values": [{"measurement": "Exptl ΔGbind", "setting": "[1]", "value": "−45.2", "unit": "kJmol^−1"}]}
